From patent US8853125B2, “Pyrazole compounds for controlling invertebrate pests” (BASF SE, priority 2008, dated 2014)

What was measured:
Assay type in all cases: in vivo
[1] = system: Cotton Aphid (aphis gossypii, Mixed Life Stages); test: Cotton aphid, method a (cotyledon dip); conditions: 120 h, read-out: mortality in comparison with untreated controls
Description: (§1) The active compounds were formulated in 50:50 (vol:vol) acetone:water and 100 ppm Kinetica™ surfactant.
Cotton plants at the cotyledon stage (one plant per pot) were infested by placing a heavily infested leaf from the main colony on top of each cotyledon. The aphids were allowed to transfer to the host plant overnight, and the leaf used to transfer the aphids was removed. The cotyledons were dipped in the test solution and allowed to dry. After 5 days, mortality counts were made.

[2] = system: Green Peach Aphid (Myzus persicae, Mixed Life Stages); test: Green peach aphid, method a (leaf dip, pepper plants); conditions: foliar, 120 h, read-out: mortality in comparison with untreated controls
Description: as §1
Pepper plants in the 2nd leaf-pair stage (variety ‘California Wonder’) were infested with approximately 40 laboratory-reared aphids by placing infested leaf sections on top of the test plants. The leaf sections were removed after 24 hr. The leaves of the intact plants were dipped into gradient solutions of the test compound and allowed to dry. Test plants were maintained under fluorescent light (24 hour photoperiod) at about 25° C. and 20-40% relative humidity. Aphid mortality on the treated plants, relative to mortality on check plants, was determined after 5 days.

[3] = system: Cowpea Aphid (aphis craccivora); test: Cowpea aphid, sprayed potted cowpea plants; conditions: read-out: mortality in comparison with untreated controls
Protocol: The active compounds were formulated in 50:50 (vol:vol) acetone:water. The test solution was prepared at the day of use.
Potted cowpea plants colonized with 100-150 aphids of various stages were sprayed after the pest population had been recorded. Population reduction was assessed after 24, 72, and 120 hours.

[4] = system: Vetch Aphid (Megoura viciae); test: Vetch aphid, bean leaf disks in microtiterplates; conditions: foliar, 144 h
Protocol: The active compounds were formulated in 1:3 (vol:vol) DMSO:water with different concentrations of formulated compounds.
Bean leaf disks were placed into microtiterplates filled with 0.8% agar-agar and 2.5 ppm OPUS™. The leaf disks were sprayed with 2.5 μl of the test solution and 5 to 8 adult aphids were placed into the microtiterplates which were then closed and kept at 23±1° C. and 50±5% relative humidity under fluorescent light for 6 days. Mortality was assessed on the basis of vital, reproduced aphids. Aphid mortality and fecundity was then visually assessed.

In the case of `CN1CCn2ncc(C(=O)Nc3cccnc3)c2C1` [Compound 13, N-(pyridine-3-yl)-5-methyl-4,5,6,7-tetrahydropyrazolo-[1,5-a]pyrazine-3-carboxamide], the mortality at 300 ppm [1] is reported as ≥ 75%, the mortality at 300 ppm [2] is reported as ≥ 75% and the mortality at 300 ppm [3] is reported as ≥ 75%. The mortality at 2500 µg/mL [4] was ≥ 90%.
